Reference: ChEMBL document CHEMBL1121752, “Cell-specific ligands for selective drug delivery to tissues and organs” (J Med Chem, 1981)
pKi: −log10 of the molar value.

Key:
[1] = Compound was evaluated for the inhibition of [125I]-labeled D-mannose-bovine serum albumin binding to alveolar macrophages; set-up: species or system Rattus norvegicus
Rattus norvegicus [2] = organism: Rattus norvegicus; test: Compound was evaluated for the inhibition of [125I]-labeled D-mannose-bovine serum albumin binding to alveolar macrophages at 10 uM
Rattus norvegicus [3] = organism: Rattus norvegicus; test: Compound was evaluated for the inhibition of [125I]-labeled D-mannose-bovine serum albumin binding to alveolar macrophages at 100 uM
Rattus norvegicus [4] = organism: Rattus norvegicus; test: Compound was evaluated for the inhibition of [125I]-labeled D-mannose-bovine serum albumin binding to alveolar macrophages at 50 uM

SMILES	pKi [1]	inhibition (Rattus norvegicus [2])	inhibition (Rattus norvegicus [3])	inhibition (Rattus norvegicus [4])
O=C(CCSC1OC(CO)C(O)C(O)C1O)NCCCC[C@@H](NC(=O)CCSC1OC(CO)C(O)C(O)C1O)C(=O)O (stereo partly specified)	5.21			
O=C(CCSC1OC(CO)C(O)C(O)C1O)NCCCCC(NC(=O)[C@@H](CCCCNC(=O)CCSC1OC(CO)C(O)C(O)C1O)NC(=O)CCSC1OC(CO)C(O)C(O)C1O)C(=O)O (stereo in doubt; 14) [listing 1 of 2 here]		43%	89%	81%
O=C(CCSC1OC(CO)C(O)C(O)C1O)NCCCCC(NC(=O)[C@@H](CCCCNC(=O)CCSC1OC(CO)C(O)C(O)C1O)NC(=O)CCSC1OC(CO)C(O)C(O)C1O)C(=O)O (stereo in doubt; 14) [listing 2 of 2 here]	5.41			
O=C(CCSC1OC(CO)C(O)C(O)C1O)NCCCC[C@H](NC(=O)CCSC1OC(CO)C(O)C(O)C1O)C(=O)O (stereo partly specified)	5.11			
O=C(CCSC1OC(CO)C(O)C(O)C1O)NCCCCC(NC(=O)[C@@H](CCCCNC(=O)CCSC1OC(CO)C(O)C(O)C1O)NC(=O)CCSC1OC(CO)C(O)C(O)C1O)C(=O)NCCCCCCNC(=O)CCc1ccc(O)cc1 (stereo partly specified)	5.03			
CC(C)CCCC(C)C1CCC2C3CC=C4CC(OCCCCCCNC(=O)C(CCCCNC(=O)CCSC5OC(CO)C(O)C(O)C5O)NC(=O)[C@@H](CCCCNC(=O)CCSC5OC(CO)C(O)C(O)C5O)NC(=O)CCSC5OC(CO)C(O)C(O)C5O)CCC4(C)C3CCC12C (stereo partly specified)	5.40			
O=C(CSC1OC(CO)C(O)C(O)C1O)NCCCCC(NC(=O)[C@@H](CCCCNC(=O)CSC1OC(CO)C(O)C(O)C1O)NC(=O)CSC1OC(CO)C(O)C(O)C1O)C(=O)O (stereo partly specified)		27%	81%	68%
CC1OC(SCCC(=O)NCCCCC(NC(=O)[C@@H](CCCCNC(=O)CCSC2OC(C)C(O)C(O)C2O)NC(=O)CCSC2OC(C)C(O)C(O)C2O)C(=O)O)C(O)C(O)C1O (stereo partly specified)		9%	45%	
NCCCCCCNC(=O)C(CCCCNC(=O)CCSC1OC(CO)C(O)C(O)C1O)NC(=O)[C@@H](CCCCNC(=O)CCSC1OC(CO)C(O)C(O)C1O)NC(=O)CCSC1OC(CO)C(O)C(O)C1O (stereo partly specified)	5.10		5%	
N/C(CSC1OC(CO)C(O)C(O)C1O)=N\CCCC[C@@H](/N=C(\N)CSC1OC(CO)C(O)C(O)C1O)C(=O)O (stereo partly specified)	4.00			
O=C(CCSC1OC(CO)C(O)C(O)C1O)NCCCCC(NC(=O)C(CCCCNC(=O)CCSC1OC(CO)C(O)C(O)C1O)NC(=O)[C@@H](CCCCNC(=O)CCSC1OC(CO)C(O)C(O)C1O)NC(=O)CCSC1OC(CO)C(O)C(O)C1O)C(=O)O (stereo partly specified)	5.44			
O=C(CCSC1OC(CO)C(O)C(O)C1O)NCCCCC(NC(=O)[C@@H](CCCCNC(=O)CCSC1OC(CO)C(O)C(O)C1O)NC(=O)CCSC1OC(CO)C(O)C(O)C1O)C(=O)O (stereo in doubt; 31)		0%	2%	0%
CC(=O)C(CCCC/N=C(/N)CSC1OC(CO)C(O)C(O)C1O)NC(=O)[C@@H](CCCC/N=C(\N)CSC1OC(CO)C(O)C(O)C1O)/N=C(\N)CSC1OC(CO)C(O)C(O)C1O (stereo partly specified)	5.22			
